Key:
[1] = system: LDLR on HepG2 cell surface; assay: ICW, LDLR localized in cellular membranes of HepG2 (peptide alone); format: cell-based, human; details: 50 µM, vs control, average ± SD, four independent experiments in duplicate
Description: For the experiments, a total of 3 × 10^4 HepG2 cells/well were seeded in 96-well plates and treated with 4.0 μg/mL PCSK9-WT and 4.0 μg/mL PCSK9 + peptides P5 and/or P5 analogs (50 µM) and vehicle (H2O) for 2 h at 37 °C under 5% CO2 atmosphere. Thus, cells underwent to ICW assay following conditions already optimized. See Supplementary Materials for detailed information. […]
cLex Co., Nagano, Japan). The peptides (P5, P5-Best, P-H6A, and P5-S7A) were synthe-sized by the company GeneScript (Piscataway, NJ, USA) at >95% purity. The antibody against HMG-CoAR was bought from Abcam (Cambridge, UK). […]
HMG-CoAR Aactivity Assay. […] Subsequently, the samples were mixed and the absorbance at 340 nm read by the microplate reader Synergy H1 (Winooski, VT, USA) at time 0 and 10 min. The HMG-CoAR-dependent oxidation of NADPH and the inhibition properties of peptides were measured by absorbance reduction, which is directly proportional to enzyme activ- […]
In Vitro PCSK9-LDLR Binding Assay. […] The reaction was stopped with 2.0 M sulfuric acid and the absorbance at 450nm was measured using the Synergy H1 fluorescent plate reader […]

PCSK9-LDLR = biological target: T1, PCSK9-LDLR (Homo sapiens, UniProt Q8NBP7); details: parent peptide; read-out: IC50, PCSK9-LDLR binding (P5); cited from earlier work
T1 construct: purchased CycLex Co., Nagano, Japan (CircuLex)
T1 sequence (Q8NBP7 153-692): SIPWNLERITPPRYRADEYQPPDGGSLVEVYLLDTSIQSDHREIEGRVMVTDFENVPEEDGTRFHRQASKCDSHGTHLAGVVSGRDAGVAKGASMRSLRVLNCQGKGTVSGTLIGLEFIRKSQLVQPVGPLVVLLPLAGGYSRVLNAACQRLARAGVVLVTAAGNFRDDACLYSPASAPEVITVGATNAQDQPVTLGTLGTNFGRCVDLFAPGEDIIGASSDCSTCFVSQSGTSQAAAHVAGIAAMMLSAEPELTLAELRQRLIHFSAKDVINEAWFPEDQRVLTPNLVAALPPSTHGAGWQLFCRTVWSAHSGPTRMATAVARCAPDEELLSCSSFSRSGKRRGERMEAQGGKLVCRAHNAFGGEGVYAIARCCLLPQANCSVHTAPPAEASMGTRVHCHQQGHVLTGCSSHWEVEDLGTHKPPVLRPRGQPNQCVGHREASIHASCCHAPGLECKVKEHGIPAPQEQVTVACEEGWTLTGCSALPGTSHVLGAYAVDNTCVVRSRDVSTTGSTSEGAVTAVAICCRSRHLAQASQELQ
T1 sequence (Q8NBP7 31-152 partner limits assumed): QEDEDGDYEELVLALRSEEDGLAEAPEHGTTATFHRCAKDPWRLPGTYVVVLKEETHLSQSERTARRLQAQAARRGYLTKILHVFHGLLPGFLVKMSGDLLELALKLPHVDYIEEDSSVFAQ

LILPKHSDAD [Peptide P5, natural peptide derived from a peptic lupin protein hydrolysate]
increase of LDLR level in cellular membranes of HepG2 [1]: 153.6 ± 16.4%
IC50 (PCSK9-LDLR): 1600 nM

Reference: PMC8951016, “Computational Design and Biological Evaluation of Analogs of Lupin Peptide P5 Endowed with Dual PCSK9/HMG-CoAR Inhibiting Activity” (Pharmaceutics, 2022)
